Experiments:
[1] = tested on: Human umbilical vein endothelial cells (HUVECs); experiment: Measurement of 50% lethal concentration for HUVEC (alamarBlue); format: cell-based; details: 72 hours incubation, 250 μM = maximum concentration dissolved in DMSO
Description: Human umbilical vein endothelial cells (HUVECs) (ATCC CRL-1730) were obtained from American Type Culture Collection and precultivated in an Endothelial Cell Growth Medium (CELL APPLICATIONS, USA) containing 10% bovine fetal serum supplemented with 1% Antibiotic-Antimycotic solution (GIBCO BRL, USA) under a 5% CO2 atmosphere at 37° C.
A Matrigel matrix (BD Biosciences, USA) was melted and kept at 4° C. on ice, and then, 50 μL of the matrix were transferred to each well of a 96-well tissue culture plate. The plate was incubated at 37° C. for at least one hour to solidify the matrix solution. […]
After the incubation, 20 μL of a 90% alamarBlue reagent were added to individual wells, and incubated for an additional 6 hours. Then, the fluorescence intensity of each well was measured at an excitation wavelength of 530 nm and an emission wavelength of 590 nm using a Spectrafluor Plus plate reader to count the number of living cells. […] The 50% lethal concentration was calculated as the concentration at which the number of living cells was 50% of the number of cells at the start of the experiment.

[2] = tested on: hair regrowth in telogen-phase C3H/HeN Slc mice; experiment: Examination of trichogenous effect (hair regrowth on shaved back of mice); format: in vivo; details: 10 mg/mL test solution
Description: The trichogenous effect in mice of the astaxanthin monoester obtained in Preparation Example 1 was examined. The astaxanthin monoester obtained in Preparation Example 1 was dissolved in 20% (v/v) ethanol-containing a-tocopherol to prepare a 10 mg/mL astaxanthin monoester test solution. Male 7-week-old C3H/HeN Slc (SPF) mice were divided into three groups, i.e., a test group, a positive control group, and a negative control group, of 10 each. It should be noted that 45 to 95-day-old C3H mice are in the telogen phase of the hair cycle. Hairs were shaved from a site measuring 5 cm x 3 cm on the back of each mouse, and the above-described test solution was applied to that site in a dosage of 0.05 mL once a day for 18 days to observe the conditions of hair regrowth. In the positive control group, 1% (w/v) minoxidil (in 50% (v/v) ethanol), and in the negative control group, 50% (v/v) ethanol were applied. The conditions of hair regrowth were evaluated, using the following scoring criteria, expressed in terms of percentage of the surface area of the test site where the observed change occurred.
1: skin changed to gray (in less than 50% of area)
2: skin changed to gray (in 50% or more of area) and hair regrowth was observed (in less than 50% of area)
3: skin changed to gray (in 50% or more of area) and hair regrowth was observed (in 50% or more but less than 80% of area)
4: hair regrowth was observed distinctly (in 80% or more but less than 100% of area)
5: hair regrowth was observed distinctly (in 100% of area)

astaxanthin monoester
LC50 (50% lethal concentration) [1]: ≥ 250 µM
trichogenous effect (hair regrowth scoring) compared to negative control group ([2]; 0.05 mL applied once a day for 18 days to shaved back of male C3H/HeN mice, vs 50% ethanol): markedly superior trichogenous effect
appearance (onset) of trichogenous effect compared to positive control group ([2]; 0.05 mL once a day for 18 days, topical, mice, vs 1% (w/v) minoxidil): appeared a little later than in the positive control group
rate of progress of hair regrowth after the hairs begun to grow ([2]; 0.05 mL once a day for 18 days, topical, mice, vs 1% minoxidil and negative control): higher than that in the positive control group

From patent US20060269497A1, “Trichogenous agent” (YAMAHA HATSUDOKI KABUSHIKI KAISHA, priority 2005, published 2006)
